Assay results: paper PMC11065314, “Identification of compounds that cause axonal dieback without cytotoxicity in dorsal root ganglia explants and intervertebral disc cells with potential to treat pain via denervation” (PLOS ONE, 2024)
Values joined by “and” are separate entries in the source; they are usually repeats but may differ in a detail not shown here. Identical values can stand only once. Counter-ions that a name gives are not always drawn. Like-named read-outs stand apart in the source and are kept apart here.

Key:
adult rat DRG explants = format: cell-based
Human NP cells [1] = assay: Quantification of viable NP cells (LIVE/DEAD staining); format: cell-based
Description: (§1) Nucleus pulposus (NP) cells are native matrix-producing cells at the core of intervertebral discs. To repurpose axonal dieback compounds to denervate aberrant nerve fibers in discs related to chronic LBP, the cytocompatibility of these compounds with NP cells must be evaluated. Human NP cells (Sciencell, 4800) from donor 1 (Lot #5954) and donor 2 (Lot# 21579) were cultured according to previously established protocol in our lab adapted from manufacturer’s instructions. Briefly, passage three cells from both donors were expanded in Poly-L-lysine (PLL) (Sciencell, 413) coated T75 flasks. Cells were then lifted and reseeded at 5,000 cells/cm^2 onto two PLL-coated 48-well plates (Greiner Bio-One, 677180) and allowed to attach overnight before treating with Pyr or Vcr. One plate was used for LIVE/DEAD staining and the other plate was used for AlamarBlue assay as described below. Complete NP cell media (Sciencell, 4801) containing basal media supplemented with 1% penicillin-streptomycin, 1% growth supplement and 2% FBS were used for maintaining cells in culture. To mimic the hypoxic disc environment, NP cells were cultured in a hypoxia chamber (Stem Cell Technologies, 27310) with 5% CO2, 3.5% O2, 91.5% N2 (Airgas) during the entire culture and treatment incubation period.
(§2) Pyr stock solution was diluted in complete NP media to achieve final concentrations of 500 μM, 1 mM and 2 mM Pyr. 16.9 μg/mL and 169 μg/mL Vcr stock solutions were prepared in 1X PBS then diluted in complete NP media to achieve final concentrations of 10, 25, 50, 100 nM and 200, 500 nM, respectively. Cells were incubated with 250 μL of final treatment solutions in duplicate wells per donor for three days. Cells in negative control group were incubated with 250 μL of complete NP media with 0.55% v/v 1X PBS as solvent control. On day 3 post-treatment, brightfield images at 4X magnification were taken using a BioTek Cytation1 Plate Imager (Agilent) to verify cell proliferation and observe cell morphology. Three experimental replicates were performed for each cell donor.
On day 3 of incubation with drug, media treatment solutions were removed from each well and cells were carefully rinsed with 200 μL of sterile 1X PBS to remove excess media. NP cells were stained with 150 μL of 2 μM Calcein AM and 6 μM EtHD-1 solution from LIVE/DEAD Viability/Cytotoxicity Kit (Thermo Fisher Scientific, L3224) for 30 minutes at room temperature protected from light. After staining, cells were gently rinsed with 200 μL sterile 1X PBS to remove excess staining solution. Excitation and emission wavelengths for live cell fluorescence is 495 and 515 nm and dead cell fluorescence is 495 and 635 nm. Using a BioTek Cytation1 Plate Imager (Agilent), GFP filter cube (Agilent, 1225101, ex: 451.5–486.5 nm, em: 505.5–544.5 nm) and RFP filter cubes (Agilent, 1225103, ex: 511-551nm, em: 573–613 nm), fluorescent images at 4X magnification of four regions per well were taken. Gen5 v3.11 software (Agilent) was used to count green (live) and orange (dead) cells in fluorescent images. Dead NP cell staining was verified and evident by positive EtHD-1 orange staining in kill control wells where cells were treated with 70% EtOH for 10 minutes (S4 Fig). Percentage of live cells were calculated by calculating the percentage of live cells over total cell counts as shown in Eq 3.
Cellviability(%)=Livecellcounts/Livecellcounts+Deadcellcounts×100% (3)

Human NP cells [2] = assay: NP cell metabolic activity (AlamarBlue reduction); format: cell-based;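 for AB reduction per cell (%): percent AlamarBlue reduction per manufacturer divided by estimated total cells per well from LIVE/DEAD counts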
Description: as §1, §2
On day 3 of incubation with drugs, 25 μL (10% v/v of media volume) of AlamarBlue HS cell viability reagent (Thermo Fisher Scientific, A50100) were added into each well. Cells were incubated with the AlamarBlue reagent for 2 hours at 37°C under hypoxia then 60 μL aliquots of cell media were removed in duplicates into a 96-well plate. The absorbance at 570 and 600 nm were read using a microplate reader (Agilent) and calculations for AlamarBlue reduction were calculated according to the manufacturer’s protocol. To account for different cell confluency between donors and groups, AlamarBlue reduction was normalized to estimated total number of cells per well obtained from LIVE/DEAD staining. Cellular metabolic activity in treated groups was reported as a ratio of normalized AlamarBlue reduction to PBS control group.

adult rat DRG neurons = tested on: adult rat DRG neurons; parameters: method as in PMID 32388569; conditions: below 1000 nM; cited from earlier work
[3] = 10 nM, donor 1, day 3, single wells (Exp, Rep)
[4] = 25 nM, donor 1, day 3, single wells (Exp, Rep)
[5] = 25 nM, donor 2, day 3, single wells (Exp, Rep)
[6] = 50 nM, donor 1, day 3, single wells (Exp, Rep)
[7] = 50 nM, donor 2, day 3, single wells (Exp, Rep)
[8] = 100 nM, donor 1, day 3, single wells (Exp, Rep)
[9] = 100 nM, donor 2, day 3, single wells (Exp, Rep)
[10] = 200 nM, donor 1, day 3, single wells (Exp, Rep)
[11] = 200 nM, donor 2, day 3, single wells (Exp, Rep)
[12] = 500 nM, donor 1, day 3, single wells (Exp, Rep)

Structure (SMILES): CC[C@]1(O)C[C@H]2CN(CCc3c([nH]c4ccccc34)[C@@](C(=O)OC)(c3cc4c(cc3OC)N(C=O)[C@H]3[C@@](O)(C(=O)OC)[C@H](OC(C)=O)[C@]5(CC)C=CCN6CC[C@]43[C@@H]65)C2)C1 [Vcr, vincristine sulfate]
- Axon length ratio compared to PBS control (adult rat DRG explants): significantly lower axon length ratio than PBS control
- Day on which Caps axon length ratio threshold (0.45) was met (adult rat DRG explants): ≤ 1 days
- Original axon length left behind (adult rat DRG explants): less than 8.1%
- Day on which Caps axon length ratio threshold (0.45) was met (adult rat DRG explants; 100 nM): ≤ 2 days
- Percent live (%) (Human NP cells [1]; [3]): 90.3134% and 98.5594% and 99.6198% and 83.3102% and 99.7603% and 99.2074%
- Percent live (%) (Human NP cells [1]; [4]): 89.2996% and 89.1566% and 99.4877% and 99.866% and 98.4016% and 98.5294%
- Percent live (%) (Human NP cells [1]; [5]): 97.6127% and 96.3918% and 89.1374% and 87.5648% and 97.9899% and 92.8571%
- Percent live (%) (Human NP cells [1]; [6]): 99.536% and 94.3223% and 95.1923% and 99.2108% and 99.6933% and 99.3363%
- Percent live (%) (Human NP cells [1]; [7]): 98.5163% and 97.4555% and 94.0054% and 88.1057% and 96.8127% and 94.0758%
- Percent live (%) (Human NP cells [1]; [8]): 98.9571% and 99.7976% and 95.6589% and 96.3247% and 98.866% and 99.2797%
- Percent live (%) (Human NP cells [1]; [9]): 99.5495% and 99.5885% and 95.3125% and 93.5614% and 98.018% and 96.1078%
- Percent live (%) (Human NP cells [1]; [10]): 96.7883% and 99.5461% and 93.2203% and 99.7674% and 98.7402% and 97.893%
- Percent live (%) (Human NP cells [1]; [11]): 98.9101% and 97.7221% and 91.7808% and 91.6988% and 97.8182% and 96.8701%
- Percent live (%) (Human NP cells [1]; [12]): 99.2% and 97.9245% and 96.5986% and 97.28% and 92.5651% and 91.0506%
- AB reduction per cell (%) (Human NP cells [2]; [3]): 0.002283% and 0.00154% and 0.001747% and 0.002442% and 0.00231% and 0.002706%
- AB reduction per cell (%) (Human NP cells [2]; 10 nM, donor 2, day 3, single wells (Exp, Rep)): 0.001215% and 0.001339% and 0.005412% and 0.01334% and 0.005031% and 0.005908%
- AB reduction per cell (%) (Human NP cells [2]; [4]): 0.001389% and 0.003739% and 0.002704% and 0.002205% and 0.001365% and 0.001406%
- AB reduction per cell (%) (Human NP cells [2]; [5]): 0.003051% and 0.007629% and 0.005557% and 0.004909% and 0.001181% and 0.0009857%
- AB reduction per cell (%) (Human NP cells [2]; [6]): 0.001753% and 0.001156% and 0.00138% and 0.00139% and 0.003609% and 0.003175%
- AB reduction per cell (%) (Human NP cells [2]; [7]): 0.0005415% and 0.0008201% and 0.002435% and 0.002975% and 0.005792% and 0.00531%
- AB reduction per cell (%) (Human NP cells [2]; [8]): 0.001416% and 0.0009649% and 0.001537% and 0.002073% and 0.00337% and 0.003265%
- AB reduction per cell (%) (Human NP cells [2]; [9]): 0.0006846% and 0.0007833% and 0.00204% and 0.002057% and 0.009145% and 0.008838%
- AB reduction per cell (%) (Human NP cells [2]; [10]): 0.001363% and 0.0008921% and 0.002395% and 0.003983% and 0.00365% and 0.004535%
- AB reduction per cell (%) (Human NP cells [2]; [11]): 0.0005853% and 0.0004556% and 0.002302% and 0.00249% and 0.005313% and 0.004842%
- AB reduction per cell (%) (Human NP cells [2]; [12]): 0.001679% and 0.00128% and 0.002381% and 0.004274% and 0.005712% and 0.005618%
- AB reduction per cell (%) (Human NP cells [2]; 500 nM, donor 2, day 3, single wells (Exp, Rep)): 0.0008561% and 0.0008471% and 0.004331% and 0.0268% and 0.00643% and 0.009026%
- Cellular metabolic activity compared to PBS control (Human NP cells [2]; 10 to 500 nM, donor 1 and 2, day 3): No significant differences were detected
- Cytotoxicity (adult rat DRG neurons): does not induce cytotoxicity
